Converted amounts (≈) assume the structure as drawn.
Tests used:
[1] = system: OVCAR-3; experiment: Antiproliferative activity against human OVCAR-3 cells; type: functional, cell-based
[2] = system: ES-2; experiment: Antiproliferative activity against human ES2 cells; type: functional, cell-based
[3] = Antiproliferative activity against human OVCAR-10 cells; type: functional, cell-based
[4] = system: HEK-293T; experiment: Antiproliferative activity against HEK293T; type: functional, cell-based; conditions: Homo sapiens
[5] = Antiproliferative activity against human HEY A8 cells; type: functional, cell-based
[6] = system: MHCC97H; experiment: Antiproliferative activity against human MHCC97H cells assessed as reduction in cell viability incubated for 48 hrs by MTT assay; type: functional, cell-based
[7] = Inhibition of TrxR (unknown origin) expressed in MHCC97H cells incubated for 24 hrs by colorimetric assay; type: cell-based, Homo sapiens
[8] = system: Candida tropicalis; experiment: Antifungal activity against Candida tropicalis CGMCC 2.3739; type: functional
[9] = system: Candida albicans; experiment: Antifungal activity against azole-resistant Candida albicans clinical isolate 17 assessed as fungal growth inhibition incubated for 24 hrs by CLSI protocol based broth microdilution method; type: functional
[10] = system: Candida albicans; experiment: Antifungal activity against azole-resistant Candida albicans clinical isolate 901 assessed as fungal growth inhibition incubated for 24 hrs by CLSI protocol based broth microdilution method; type: functional
[11] = system: Candida albicans; experiment: Antifungal activity against azole-resistant Candida albicans clinical isolate 904 assessed as fungal growth inhibition incubated for 24 hrs by CLSI protocol based broth microdilution method; type: functional
[12] = system: Candida albicans; experiment: Antifungal activity against azole-resistant Candida albicans clinical isolate CaR assessed as fungal growth inhibition incubated for 24 hrs by CLSI protocol based broth microdilution method; type: functional
[13] = system: Candida albicans; experiment: Antifungal activity against azole-resistant Candida albicans clinical isolate 632 assessed as fungal growth inhibition incubated for 24 hrs by CLSI protocol based broth microdilution method; type: functional
[14] = Antioxidant activity assessed as inhibition of peroxynitrite mediated L-tyrosine nitration in sodium phosphate buffer at pH 7.5 incubated for 7 mins by RP-HPLC analysis; type: functional
[15] = Antioxidant activity assessed as reduction in peroxynitrite mediated L-tyrosine nitration by measuring remaining activity relative to control; type: functional; design: concentration or dose not given beside the values
[16] = system: Pichia kudriavzevii; experiment: Antifungal activity against Candida krusei AS 2.1045; type: functional
[17] = system: Aspergillus fumigatus; experiment: Antifungal activity against Aspergillus fumigatus CGMCC 3.7795; type: functional
[18] = system: Candida albicans; experiment: Antifungal activity against Candida albicans SC5314; type: functional
[19] = system: Cryptococcus neoformans; experiment: Antifungal activity against Cryptococcus neoformans CGMCC 2.3161; type: functional
[20] = system: Candida parapsilosis; experiment: Antifungal activity against Candida parapsilosis 22019; type: functional; conditions: Lodderomyces parapsilosis
[21] = Stability in rat plasma assessed as half life; type: ADME, cell-free
[22] = system: Nakaseomyces glabratus; experiment: Antifungal activity against Candida glabrata; type: functional
[23] = system: Candida albicans; experiment: Antifungal activity against Candida albicans CPCC 400616; type: functional
[24] = system: Human alphaherpesvirus 3; experiment: Antiviral activity against VZV infected in African green monkey Vero cells assessed as reduction in virus-induced cytopathic effect incubated for 3 days by MTT assay; type: functional, organism-based; conditions: Human alphaherpesvirus 3, Vero, 72 h
[25] = system: Human alphaherpesvirus 2; experiment: Antiviral activity against HSV-2 infected in African green monkey Vero cells assessed as reduction in virus-induced cytopathic effect incubated for 3 days by MTT assay; type: functional, organism-based; conditions: Human alphaherpesvirus 2, Vero, 72 h
[26] = system: Human betaherpesvirus 5; experiment: Antiviral activity against […] infected in African green monkey Vero cells assessed as reduction in virus-induced cytopathic effect incubated for 3 days by MTT assay; type: functional, organism-based; conditions: Human betaherpesvirus 5, Vero, 72 h
[27] = system: Human alphaherpesvirus 1; experiment: Antiviral activity against HSV-1 infected in African green monkey Vero cells assessed as reduction in virus-induced cytopathic effect incubated for 3 days by MTT assay; type: functional, organism-based; conditions: Human alphaherpesvirus 1, Vero, 72 h
[28] = target: Lactoperoxidase (Homo sapiens, UniProt P22079); experiment: Inhibition of LPO (unknown origin)-mediated L-tyrosine nitration incubated for 20 mins in presence of H2O2 and sodium nitrite by RP-HPLC analysis
[29] = system: HeLa; experiment: Cytotoxicity against human HeLa cells assessed as inhibition of cell growth incubated for 96 hrs by MTT assay; type: functional, cell-based
[30] = system: HepG2; experiment: Cytotoxicity against human HepG2 cells assessed as inhibition of cell growth incubated for 96 hrs by MTT assay; type: functional, cell-based; conditions: HepG2, 96 h
[31] = system: A549; experiment: Cytotoxicity against human A549 cells assessed as inhibition of cell growth incubated for 96 hrs by MTT assay; type: functional, cell-based; conditions: A549, 96 h
[32] = system: SMMC-7721; experiment: Cytotoxicity against human SMMC-7721 cells assessed as inhibition of cell growth incubated for 96 hrs by MTT assay; type: functional, cell-based; conditions: SMMC-7721, 96 h
[33] = Cytotoxicity against human A549 cells assessed as reduction in cell viability incubated for 96 hrs by MTT assay; type: toxicity, cell-based
[34] = Cytotoxicity against human SGC cells assessed as reduction in cell viability incubated for 96 hrs by MTT assay; type: toxicity, cell-based
[35] = Cytotoxicity against human MDA-MB-231 cells assessed as reduction in cell viability incubated for 96 hrs by MTT assay; type: toxicity, cell-based

Lactoperoxidase, sequence (P22079 whole entry): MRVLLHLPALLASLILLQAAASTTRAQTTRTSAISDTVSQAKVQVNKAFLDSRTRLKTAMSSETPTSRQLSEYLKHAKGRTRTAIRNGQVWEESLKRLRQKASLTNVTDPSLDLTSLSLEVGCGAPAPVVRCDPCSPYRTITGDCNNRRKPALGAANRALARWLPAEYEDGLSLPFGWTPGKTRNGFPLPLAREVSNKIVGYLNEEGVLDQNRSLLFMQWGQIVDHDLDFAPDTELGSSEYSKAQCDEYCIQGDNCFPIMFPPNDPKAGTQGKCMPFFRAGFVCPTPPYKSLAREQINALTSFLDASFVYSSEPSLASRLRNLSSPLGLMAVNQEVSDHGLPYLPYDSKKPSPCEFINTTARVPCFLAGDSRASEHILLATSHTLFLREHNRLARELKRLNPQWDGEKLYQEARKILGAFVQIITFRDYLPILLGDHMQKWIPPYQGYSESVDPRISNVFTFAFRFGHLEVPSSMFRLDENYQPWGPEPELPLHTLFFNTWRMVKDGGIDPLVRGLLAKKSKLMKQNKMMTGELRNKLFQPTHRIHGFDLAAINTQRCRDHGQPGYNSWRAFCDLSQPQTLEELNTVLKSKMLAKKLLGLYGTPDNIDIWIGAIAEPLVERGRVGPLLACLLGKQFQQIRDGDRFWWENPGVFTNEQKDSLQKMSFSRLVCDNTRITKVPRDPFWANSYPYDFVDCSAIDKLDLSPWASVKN

O=C(O)CCCC[C@@H]1SC[C@@H]2NC(=O)N[C@@H]21 [BIOTIN]
IC50 [1]: > 100 µM | IC50 [2]: > 100 µM | IC50 [3]: > 100 µM | IC50 [4]: > 100 µM | IC50 [5]: > 100 µM

CN1CCC(COc2cnc(-c3cccc(Cn4nc(-c5cccc(C#N)c5)ccc4=O)c3)nc2)CC1 [TEPOTINIB]
IC50 [6]: 0.016 µM | IC50 [7]: > 10 µM

CN(C)CC[Se]c1cnc(-c2cccc(Cn3nc(-c4cccc(C#N)c4)ccc3=O)c2)nc1
IC50 [6]: 0.027 µM | IC50 [7]: 0.421 µM

OC(Cn1cncn1)(Cn1cncn1)c1ccc(F)cc1F [FLUCONAZOLE]
MIC [8]: 2 µg/mL (≈ 6.53 µM) | MIC [9]: > 128 µg/mL | MIC [10]: > 128 µg/mL | MIC [11]: > 128 µg/mL | MIC [12]: > 128 µg/mL | MIC [13]: > 128 µg/mL

CCCc1cc(=O)[nH]c(=S)[nH]1 [PROPYLTHIOURACIL]
IC50 [14]: 95 µM

Cc1cc(=O)[nH]c(=S)[nH]1 [METHYLTHIOURACIL]
IC50 [14]: 66.7 µM

COc1cccc(Cn2ccn(C)c2=[Se])c1
IC50 [14]: 7.8 µM

COc1cccc(Cn2ccn(Cc3cccc(OC)c3)c2=[Se])c1
Activity [15]: 82% | IC50 [14]: 42.2 µM

Cc1ccccc1[Se]C(Cn1ccnc1)c1ccc(Cl)cc1 (centres undefined)
MIC [8]: 0.03 µg/mL (≈ 0.0798 µM) | MIC [16]: 0.13 µg/mL (≈ 0.346 µM) | MIC [17]: 4 µg/mL (≈ 10.6 µM) | MIC [18]: 0.03 µg/mL (≈ 0.0798 µM) | MIC [19]: 0.5 µg/mL (≈ 1.33 µM) | MIC [20]: 0.5 µg/mL (≈ 1.33 µM) | half-life [21]: > 6 h | MIC [22]: 0.5 µg/mL (≈ 1.33 µM) | MIC [23]: 0.06 µg/mL (≈ 0.16 µM)

C=Cn1ccn(C)c1=[Se]
Activity [15]: 71%

Cn1ccnc1S [METHIMAZOLE]
Activity [15]: 32.5% | IC50 [14]: 23.9 µM

Cc1cccc(C)c1[Se]C(Cn1ccnc1)c1ccc(F)cc1 (centres undefined)
MIC [8]: 0.06 µg/mL (≈ 0.161 µM) | MIC [16]: 0.06 µg/mL (≈ 0.161 µM) | MIC [17]: 2 µg/mL (≈ 5.36 µM) | MIC [18]: 0.03 µg/mL (≈ 0.0804 µM) | MIC [19]: 0.13 µg/mL (≈ 0.348 µM) | MIC [20]: 0.13 µg/mL (≈ 0.348 µM) | MIC [22]: 0.25 µg/mL (≈ 0.67 µM) | MIC [23]: 0.03 µg/mL (≈ 0.0804 µM)

N#Cc1cccc(-c2ccc(=O)n(Cc3cccc(-c4ncc([Se]CCCN5CCOCC5)cn4)c3)n2)c1
IC50 [6]: 0.029 µM | IC50 [7]: 0.117 µM

CCC(C)n1ncn(-c2ccc(N3CCN(c4ccc(OCC5COC(Cn6cncn6)(c6ccc(Cl)cc6Cl)O5)cc4)CC3)cc2)c1=O (centres undefined) [ITRACONAZOLE]
MIC [8]: 0.5 µg/mL (≈ 0.709 µM) | MIC [9]: > 128 µg/mL | MIC [16]: 0.06 µg/mL (≈ 0.085 µM) | MIC [17]: 2 µg/mL (≈ 2.83 µM) | MIC [18]: 0.03 µg/mL (≈ 0.0425 µM) | MIC [19]: 0.5 µg/mL (≈ 0.709 µM) | MIC [10]: > 128 µg/mL | MIC [11]: > 128 µg/mL | MIC [12]: 8 µg/mL (≈ 11.3 µM) | MIC [13]: > 128 µg/mL | MIC [20]: 0.25 µg/mL (≈ 0.354 µM) | MIC [22]: 0.5 µg/mL (≈ 0.709 µM) | MIC [23]: 0.25 µg/mL (≈ 0.354 µM)

Cc1cccc(C)c1[Se]C(Cn1ccnc1)c1ccc(Cl)cc1 (centres undefined)
MIC [8]: 0.06 µg/mL (≈ 0.154 µM) | MIC [16]: 0.03 µg/mL (≈ 0.077 µM) | MIC [17]: 1 µg/mL (≈ 2.57 µM) | MIC [18]: 0.03 µg/mL (≈ 0.077 µM) | MIC [19]: 0.13 µg/mL (≈ 0.334 µM) | MIC [20]: 0.03 µg/mL (≈ 0.077 µM) | MIC [22]: 0.13 µg/mL (≈ 0.334 µM) | MIC [23]: 0.03 µg/mL (≈ 0.077 µM)

NC1=Nc2c(ncn2C[Se]CCO)C(N)N1 (centres undefined)
EC50 [24]: > 100 µM | EC50 [25]: 32.2 µM | EC50 [26]: > 100 µM | EC50 [27]: 15.4 µM

Cn1cc[nH]c1=[Se]
Activity [15]: 66% | IC50 [14]: 49.1 µM

Cn1cc[nH]c1=S [METHIMAZOLE]
IC50 [28]: 0.51 µM

O=C1N[C@H]2[C@H](CS[C@H]2CCCCC(=O)[Se]Cc2ccccc2)N1
IC50 [1]: 36.9 µM | IC50 [2]: 16.2 µM | IC50 [3]: 47.2 µM | IC50 [4]: 6.57 µM | IC50 [5]: 17.3 µM

O=C(Nc1ccn([C@@H]2O[C@H](CO)[C@@H](O)C2(F)F)c(=O)n1)OC1C[Se][Se]C1
IC50 [29]: 0.88 µM | IC50 [30]: 0.47 µM | IC50 [31]: 0.11 µM | IC50 [32]: 0.33 µM

Clc1ccc(-c2nn[se]c2-n2ccnc2)c(Cl)c1
IC50 at 96 h [33]: 16.2 µg/mL (≈ 47 µM) | MIC [9]: 16 µg/mL (≈ 46.5 µM) | IC50 at 96 h [34]: 14.6 µg/mL (≈ 42.5 µM) | MIC [10]: 32 µg/mL (≈ 93 µM) | MIC [11]: 16 µg/mL (≈ 46.5 µM) | MIC [12]: 1 µg/mL (≈ 2.91 µM) | MIC [13]: 16 µg/mL (≈ 46.5 µM) | IC50 at 96 h [35]: 14.7 µg/mL (≈ 42.7 µM)

Clc1ccc(-c2nn[se]c2-n2cncn2)c(Cl)c1
IC50 at 96 h [33]: 16.9 µg/mL (≈ 49.1 µM) | MIC [9]: 4 µg/mL (≈ 11.6 µM) | IC50 at 96 h [34]: 19.5 µg/mL (≈ 56.5 µM) | MIC [10]: 8 µg/mL (≈ 23.2 µM) | MIC [11]: 32 µg/mL (≈ 92.7 µM) | MIC [12]: 4 µg/mL (≈ 11.6 µM) | MIC [13]: 16 µg/mL (≈ 46.4 µM) | IC50 at 96 h [35]: 23.5 µg/mL (≈ 68.1 µM)

NC1=Nc2c(ncn2C[Se]C(CO)CO)C(NC2CC2)N1 (centres undefined)
EC50 [24]: > 100 µM | EC50 [25]: > 100 µM | EC50 [26]: 41.1 µM | EC50 [27]: > 100 µM

— ChEMBL document CHEMBL5512666, “Selenization of Small Molecule Drugs: A New Player on the Board” (J Med Chem, 2024)
